Measurements published in patent US9549911B2, “Ginger metabolites and uses thereof” (North Carolina A&T State University, priority 2012, dated 2017).

What was measured:
[1] = tested on: human colon fibroblast cells CCD-18Co; experiment: MTT toxicity in colon cancer and normal colon cells (Part 5); type: cell-based; conditions: normal colon cells CCD-18Co, 24 hours
Description: (§1) Cell viability was determined by an MTT colorimetric assay. […] The reading reflected the number of viable cells and was expressed as a percentage of viable cells in the control. CCD-18Co cells were grown in EMEM. Both HCT-116 and HT-29 cells were cultured in McCoy's 5A medium. All of the above media were supplemented with 10% fetal bovine serum, 1% penicillin/streptomycin, and 1% glutamine, and the cells were kept in a 37° C. incubator with 95% humidity and 5% CO2.

[2] = tested on: human colon cancer cells HT-29; experiment: as above; type: cell-based; conditions: HT-29 (p53 mutant), 24 hours
Description: as §1

[3] = tested on: human colon cancer cells HCT-116; experiment: as above; type: cell-based; conditions: HCT-116, 24 hours
Description: as §1

HT-29 cells = experiment: Western blot analysis of apoptosis markers and p53 (Part 5); type: cell-based, human; conditions: HT-29 (p53 mutant), 24 hours; M2, 6S 10, 20 or 40 μM; 8S, M2′, 10S, M2″ 20 μM
Description: (§2) Cell lysates were prepared in ice-cold RIPA lysis buffer [25 mM Tris-HCl (pH 7.6), 150 mM NaCl, 1% NP-40, 1% sodium deoxycholate, 0.1% SDS, Thermo Fisher Scientific] supplemented with a protease inhibitor cocktail (AEBSF, aprotinin, bestatin, E-64, leupeptin and pepstatin A in DMSO with EDTA, Thermo Fisher Scientific). Protein content was measured by a Pierce BCA Assay Kit (Thermo Fisher Scientific). Protein contents of cell lysates (30 μg protein/lane) were resolved by SDS-PAGE. Proteins were then electro-transferred onto PVDF membranes and blots were blocked for one hour at room temperature in 1×TBS with 1% Casein (Bio-Rad Laboratories, Berkeley, Calif.). Blots were then incubated overnight at 4° C. with the desired primary antibody diluted in TBS with 0.5% Tween-20. Blots were then washed with TBS-Tween 20 and probed for 1 hour with the appropriate secondary antibody (1:1000). Protein bands were visualized with chemiluminescence using West Femto maximum detection substrate (Thermo Fisher Scientific). To confirm equal protein loading in each lane, immunoblots were stripped and re-probed for β-actin. Protein fold-induction was calculated by normalizing the intensity of the band of interest to β-actin first, and then to DMSO control lanes.

HCT-116 cells [4] = experiment: as above; type: cell-based, human; conditions: HCT-116 (p53 wild-type), 24 hours; M2, 6S 10, 20 or 40 μM; 8S, M2′, 10S, M2″ 20 μM
Description: as §2

[5] = Kinetic study of [6]-shogaol metabolism to M6 in liver microsomes; type: in vitro ADME, monkey; conditions: cynomolgus, monkey
Description: (§3) All incubations were performed in triplicate.

[6] = tested on: human lung cancer cells H-1299; experiment: MTT growth inhibition of human cancer and normal cells (Part 2); type: cell-based; conditions: Homo sapiens, NCI-H1299; H-1299, 48 h, 0 to 80 μM
Description: (§4) Growth inhibition of human cancer and normal cells. Cell growth inhibition was determined by a MTT colorimetric assay. Human colon cancer cells HCT-116, human lung cancer cells H-1299, human colon fibroblast cells CCD-18Co, and human lung fibroblast cells IMR-90 were plated in 96-well microtiter plates with 3000 cells/well and allowed to attach for 24 h at 37° C. […] After the cells were cultured for 48 h, the medium was aspirated and cells were treated with 200 μL fresh medium containing 2.41 mmol/L MTT. […] The reading reflected the number of viable cells and was expressed as a percentage of viable cells in the control. Both HCT-116 and H-1299 cells were cultured in McCoy's 5A medium. CCD-18Co and IMR-90 cells were cultured in Eagle's modified essential medium (EMEM). All of the above media were supplemented with 10% fetal bovine serum, 1% penicillin/streptomycin, and 1% glutamine, and the cells were kept in a 37° C. incubator with 95% humidity and 5% CO2.

[7] = tested on: human colon cancer cells HCT-116; experiment: as above; type: cell-based; conditions: Homo sapiens; HCT-116, 48 h, 0 to 80 μM
Description: as §4

in vitro [8] = type: cell-based, human; conditions: human
Description: as §4

H-1299 cells = experiment: TUNEL apoptosis assay (Part 2); type: cell-based, human; conditions: H-1299, 20 or 40 μM, 24 hours
Description: (§5) HCT-116 and H1299 cells were seeded in 6-well plates at 1×10^5 cells/well and incubated at 37° C. in 5% CO2 incubator. After 24 hours, fresh media supplemented with DMSO (control), [6]-shogaol, M2, M6, or M13 metabolites (20 μM or 40 μM) were added to the wells. After 6 or 24 hours incubation at 37° C. in 5% CO2 incubator, cells were washed and pre-treated for 15 min at room temperature with a solution of 20 μg/ml proteinase K. Cells were then washed twice with phosphate buffer saline pH 7.4 (PBS) and fixed for 10 min at room temperature using 10% neutral formaldehyde solution. After 2 washes in ddH2O, cells were resuspended in 100 μL ddH2O and applied on silanized microscope slides. Slides were incubated overnight at 37° C., and washed twice with PBS. TUNEL assay was then carried out according to the manufacturer's protocol. Cells were observed under 400× power using a Zeiss microscope A1 (Thornwood, N.Y.). 10 fields per slide were evaluated, and TUNEL+ cells (with brown coloration in the nucleus) were expressed as a percentage of the total number of cells contained in a field.

HCT-116 cells [9] = experiment: TUNEL apoptosis assay (Part 2); type: cell-based, human; conditions: HCT-116, 20 or 40 μM, 24 hours
Description: as §5

in vitro [10] = type: cell-based, human; conditions: human; remark: listed apart in the source
Description: as §4

[11] = Kinetic study of [6]-shogaol metabolism to M6 in liver microsomes; type: in vitro ADME, mouse; conditions: mouse
Description: as §3

[12] = as above; type: in vitro ADME; conditions: dog liver microsomes 0.1 mg/mL, 30 min
Description: as §3

[13] = as above; conditions: human
Description: To estimate kinetic parameters of metabolism of [6]-shogoal to major product M6 in liver microsomes from human and other species, the incubation conditions were optimized to ensure that formation rate of M6 was in the linear range in relation to incubation time and protein concentration. [6]-Shogaol (7.81, 15.63, 31.25, 62.5, 125, 250, 500, 1000, and 2000 μM) was incubated with liver microsomes from mouse (MLM), rat (RLM), dog (DLM), monkey (CyLM), and human (HLM) (0.1 mg/mL each, respectively) for 30 minutes. All incubations were performed in triplicate. The apparent Km and Vmax values were calculated from analysis of experimental data according to the Michaelis-Menten equation, and the results were graphically represented (for HLM) by an Eadie-Hofstee plot. Kinetic constants were reported as the value+/−S.E. of the parameter estimate.

[14] = as above; type: in vitro ADME, rat; conditions: rat
Description: as §3

[15] = tested on: human lung cancer cells H-1299; experiment: Cell Death Detection ELISA apoptosis induction (Part 3); type: cell-based; conditions: 24 hours
Description: (§6) Human colon cancer cells HCT-116 and human lung cancer cells H-1299 were plated in 96-well plates at a density of 5000 cells/well and allowed to attach overnight at 37° C. M14, M15, or [6]-shogaol in DMSO, or DMSO control, diluted in media, were added to cells and incubated for an additional 24 hours at 37° C. After 24 hours, media containing compound was removed and cells were lysed in their respective wells with reagents from a Cell Death Detection ELISA^PLUS kit from Roche Applied Science (Mannheim, Germany). Samples were harvested after cell lysates were spun down at 300 g for 10 minutes. To streptavidin coated microplates, 20 μL samples were added, and mixed with 80 μL Immunoreagent, which consisted of anti-histone-biotin, and anti-DNA-POD, and incubated with gentle shaking for 2 hours at room temperature. After incubation, Immunoreagent was removed and samples were washed 3 times with 250 μL incubation buffer. Substrate solution, ABTS, was added to each well and color was developed for 15 minutes before stopping the reaction with ABTS stop solution and reading absorbance on a microplate reader at 430 nm. Experiments were performed in triplicate and the average is given in comparison to DMSO control with standard deviation.

[16] = tested on: human colon cancer cells HCT-116; experiment: as above; type: cell-based; conditions: 24 hours
Description: as §6

A549 lung cancer cells = conditions: 6S 30 mg/kg, M2 30 mg/kg, M14 10 mg/kg, oral gavage 5×/week, 7 weeks
Description: Nu/J nude mice were obtained from Jackson Laboratories (Bar Harbor, Me.). Animals were randomized into 4 groups. A549 cells (5×10^6 cells) were implanted in both flanks of 8-weeks old Nu/J mice. One week after implantation, animals were given 100 μl of the following treatments through oral gavage 5 times/week: DMSO 0.25 ml/kg (control; n=4); 6S 10 mg/kg (n=4); 6S 30 mg/kg (n=4) or M2 30 mg/kg (n=5). Compounds were diluted in a solution of 5% DMSO in corn oil. Animal body weight and tumor volume were recorded for the duration of the experiment. Tumor volume was calculated by measuring the length and width of the tumors using a digital caliper and using the formula (Length×Width^2)/2. One hour before sacrifice, mice were given one last treatment dose as well as one intra-peritoneal injection of BrdU (7.5 mg/kg in 100 μl PBS). After 7 weeks, tumor tissues were harvested and weighed. A portion of the tumors was snap frozen in liquid nitrogen and another portion was placed in a histology cassette and immersed in formalin solution.
[…] tissues were sent to Precision Histology Lab (Oklahoma City, Okla.) for embedding in paraffin blocks. Then paraffin blocks were processed into 3-4 μm sections that were then put on microscope slides. Sections were then deparaffinized by using a succession of 3 baths of xylene (5 minutes each), 2 baths of absolute ethanol (5 minutes each), 95% ethanol for 3 minutes, 70% ethanol for 3 minutes, and rinsed in PBS. Immunostaining with TUNEL (terminal deoxynucleotidyl transferase dUTP nick end labeling) and BrdU staining kits was performed following manufacturer's recommendation. For staining quantification, sequential high-power field pictures of tumors were taken (10 pictures per tumor) using an A1 Zeiss microscope (Oberkochen, Germany). Images were processed using the Image J software, which was used to count positive, brown-colored cells in each field. Average number per tumor was calculated by averaging the number obtained for each field, and the average number of positive cells per group was obtained by averaging the values of each tumor belonging to the experimental group.
8 week-old nude mice (Jackson Laboratory, Maine) were randomized into 5 groups based on treatment (DMSO: n=4; 6S 10 mg/kg: n=4 (“6S 10”); 6S 30 mg/kg: n=4 (“6S 30”); M2 30 mg/kg: n=5 (“M2 30”); M14 10 mg/kg: n=4 (“M14 10”)). Animals were implanted with 5×10^6 A549 lung cancer cells (adenocarcinomic human alveolar basal epithelial cells) on each flank. The mice had access to food and water ad libitum. One week post implantation, the animals started receiving their respecting treatments through oral gavage (100 μl in corn oil and 5% DMSO), 5×/week. After 7 weeks of treatment, the tumor tissues were harvested.

[17] = tested on: human lung cancer cells H-1299; experiment: MTT growth inhibition by M14 and M15 (Part 3); type: cell-based; conditions: Homo sapiens, NCI-H1299; H-1299, 24 hours, 0 to 80 μM; read-out: IC50 (cell viability, MTT)
Description: as §1, with “Cell growth inhibition” for “Cell viability”, “by a” for “by an”, “control.” for “control. CCD-18Co cells were grown in EMEM.”, “and H-1299” for “and HT-29”

[18] = tested on: human colon cancer cells HCT-116; experiment: MTT growth inhibition by M14 and M15 (Part 3); type: cell-based; conditions: Homo sapiens; HCT-116, 24 hours, 0 to 80 μM; read-out: IC50 (cell viability, MTT)
Description: as §1, with “Cell growth inhibition” for “Cell viability”, “by a” for “by an”, “control.” for “control. CCD-18Co cells were grown in EMEM.”, “and H-1299” for “and HT-29”

Row | Compound | IC50 [17] | IC50 [18] | IC50 [1] | IC50 [2] | IC50 [3] | p53 expression (Western blot) (HT-29 cells) | p53 expression (Western blot) (HCT-116 cells [4]) | induction of apoptosis compared to DMSO control ([15]; H-1299, 10 μM) | induction of apoptosis compared to DMSO control ([16]; HCT-116, 10 μM) | further results
1 | CCCCCCC/C=C/C(=O)CCc1ccc(O)c(OC)c1 [8S, [8]-shogaol, reference compound] |  |  | 105 µM | 27.9 µM | 22.8 µM | increase in p53 accumulation | increase in p53 accumulation |  |  | 
2 | CCCCCCCCC/C=C/C(=O)CCc1ccc(O)c(OC)c1 [10S, [10]-shogaol, reference compound] |  |  | 136 µM | 23.9 µM | 25.1 µM | increase in p53 accumulation | increase in p53 accumulation |  |  | 
3 | CCCCCC=CC(O)CCc1ccc(O)c(OC)c1 (centres unmarked) [M6, 1-(4′-hydroxy-3′-methoxyphenyl)-4-decen-3-ol] |  |  |  |  |  |  |  |  |  | Vmax of M6 formation [5]: 2.99 +/− 0.28 nanomoles per minute per milligram liver microsomes; IC50 [6]: 61.3 µM; IC50 [7]: 68.8 µM; IC50 at 48 h (in vitro [8]): > 100 µM; induction of apoptosis (TUNEL) versus DMSO (H-1299 cells): did not display any apoptotic effect; induction of apoptosis (TUNEL) versus DMSO (HCT-116 cells [9]): did not display any apoptotic effect; IC50 at 48 h (in vitro [10]): > 100 µM; Vmax of M6 formation [11]: 4.10 +/− 0.19 nanomoles per minute per milligram liver microsomes; Vmax of M6 formation [12]: 7.33 +/− 0.43 nanomoles per minute per milligram liver microsomes; Vmax of M6 formation [13]: 10.82 +/− 0.47 nanomoles per minute per milligram liver microsomes; Vmax of M6 formation [14]: 8.19 +/− 0.48 nanomoles per minute per milligram liver microsomes

The next lines start with results.

Row | IC50 [17] | IC50 [18] | Compound | IC50 [1] | IC50 [2] | IC50 [3] | p53 expression (Western blot) (HT-29 cells) | p53 expression (Western blot) (HCT-116 cells [4]) | induction of apoptosis compared to DMSO control ([15]; H-1299, 10 μM) | induction of apoptosis compared to DMSO control ([16]; HCT-116, 10 μM) | further results
4 | 3.04 µM | 3.22 µM | CCCCC/C=C/C(=O)/C=C/c1ccc(O)c(OC)c1 [M14, (1E, 4E)-1-(4′-hydroxy-3′-methoxyphenyl)-deca-1,4-dien-3-one] |  |  |  |  |  | 7-8 fold | about 6 fold | induction of apoptosis compared to DMSO control ([15]; H-1299, 1 μM): 1 fold; induction of apoptosis compared to DMSO control ([16]; HCT-116, 1 μM): 2 fold; tumor size versus control group (A549 lung cancer cells): Reduction in tumor size
5 | 41.6 µM | 43 µM | CCCCCCCC(=O)/C=C/c1ccc(O)c(OC)c1 [M15, (E)-1-(4′-hydroxy-3′-methoxyphenyl)-dec-1-en-3-one] |  |  |  |  |  | ~2 fold | 1 fold | 
